Where two headings read alike, the source gives them in different places.
How the values were obtained:
CYP-2C19 = CYP-2C19 (Homo sapiens (Human), UniProt P33261); assay: CYP panel profile: P450 inhibition, CYP-2C19; type: in vitro ADME; conditions: human liver microsomes
Procedure: (§1) 5. CYP Panel Profile: P450 Inhibition
(§2) From 10 mM stock solutions of test compounds, a dilution plate was prepared diluting serially starting from 5 mM up to 2 μM in Acetonitrile/DMSO or Methanol/DMSO Human liver Microsomes were added at required concentration as per specific CYP isoform in a deep well assay plate (1A2, 2C9, 2D6, 2B6, 2C8, 2C19, and 3A4). Compounds were spiked in all wells from dilution plate at final concentrations starting from 50 μM up to 0.02 μM, except for positive and negative control. Specific substrate were added to all wells and reactions were pre-incubated for 10 min. To start reactions, NADPH was added to all wells at 1 mM final concentration. Assay plate was mixed by vortexing and incubated at 37° C. for […] for 3A4.20 min for (1A2, 2C9, 2B6, 2C8, 2D6) and […] for 2C19. A quencher with chilled acetonitrile suitable internal standard was added. Samples were centrifuged and supernatants were collected and subjected to LC-MS/MS analysis for determination.

[1] = Liver microsomal stability, human; conditions: for Rem @ HLM × 30 min: human liver microsomes, 1 μM compound, 0.5 mg/ml protein; for half-life at 1 μM / microsomal CLint at 1 μM: human, liver microsomes, pH 7.4
Procedure: (§3) The assessment of metabolic stability of testing compounds was performed using human, mouse, rat, dog and monkey liver microsomes (20 mg protein/ml). Each reaction mixture contained 42.5 μL of 0.1 M potassium phosphate buffer pH 7.4, containing respective LM protein (final concentration 0.5 mg/ml). 2.5 μL of the compound stock solution was added in it (1 μM final concentration). The reaction was initiated by the addition of 5 μL NADPH solution (final Concentration 1 mM). At different time points (0, 5, 15, and 30 minutes), samples were quenched with 200 μL of cold acetonitrile containing ISTD Propranolol. Samples were centrifuged at 3500 rpm for 20 mM at 4° C. Supernatant was subjected to LC-MS/MS analysis for quantification. Verapamil was used as a positive control.

CYP-3A4 = CYP-3A4 (Homo sapiens (Human), UniProt P08684); assay: CYP panel profile: P450 inhibition, CYP-3A4; type: in vitro ADME; conditions: human liver microsomes
CYP-3A4, sequence (P08684 whole entry): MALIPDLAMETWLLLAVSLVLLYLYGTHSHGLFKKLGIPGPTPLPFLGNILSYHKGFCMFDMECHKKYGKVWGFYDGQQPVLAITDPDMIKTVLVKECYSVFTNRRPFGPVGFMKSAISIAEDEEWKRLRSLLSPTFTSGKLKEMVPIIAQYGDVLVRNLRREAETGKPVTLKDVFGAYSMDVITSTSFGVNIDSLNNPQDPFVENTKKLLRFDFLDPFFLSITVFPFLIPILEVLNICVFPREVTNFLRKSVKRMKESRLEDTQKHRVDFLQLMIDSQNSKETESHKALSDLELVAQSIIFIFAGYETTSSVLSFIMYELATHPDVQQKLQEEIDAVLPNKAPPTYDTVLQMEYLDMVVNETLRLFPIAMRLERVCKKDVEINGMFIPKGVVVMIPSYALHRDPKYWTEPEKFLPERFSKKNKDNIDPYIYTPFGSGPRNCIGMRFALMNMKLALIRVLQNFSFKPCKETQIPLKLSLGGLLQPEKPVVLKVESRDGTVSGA
Procedure: as §1, §2

[2] = Liver microsomal stability, mouse; conditions: for Rem @ MLM × 30 min: mouse liver microsomes, 1 μM compound, 0.5 mg/ml protein; for half-life at 1 μM / microsomal CLint at 1 μM: mouse, liver microsomes, pH 7.4
Procedure: as §3

CYP-2C9 = CYP-2C9 (Homo sapiens (Human), UniProt P11712); assay: CYP panel profile: P450 inhibition, CYP-2C9; type: in vitro ADME; conditions: human liver microsomes
CYP-2C9, sequence (P11712 whole entry): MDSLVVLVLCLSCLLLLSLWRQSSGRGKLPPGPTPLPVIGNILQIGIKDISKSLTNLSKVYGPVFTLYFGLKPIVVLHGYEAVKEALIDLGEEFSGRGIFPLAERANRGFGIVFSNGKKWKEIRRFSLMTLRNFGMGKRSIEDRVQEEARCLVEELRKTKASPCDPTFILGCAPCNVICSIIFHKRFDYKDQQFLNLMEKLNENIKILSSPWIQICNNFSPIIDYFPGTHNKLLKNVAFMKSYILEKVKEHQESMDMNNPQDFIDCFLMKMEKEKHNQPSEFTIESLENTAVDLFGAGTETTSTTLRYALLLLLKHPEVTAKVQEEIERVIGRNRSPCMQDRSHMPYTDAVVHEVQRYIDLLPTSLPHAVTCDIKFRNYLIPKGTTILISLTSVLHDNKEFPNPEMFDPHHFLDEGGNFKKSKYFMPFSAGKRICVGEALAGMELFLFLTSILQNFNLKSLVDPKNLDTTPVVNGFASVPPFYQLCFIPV
Procedure: as §1, §2

CYP-2B6 = CYP-2B6 (Homo sapiens (Human), UniProt P20813); assay: CYP panel profile: P450 inhibition, CYP-2B6; type: in vitro ADME; conditions: human liver microsomes
CYP-2B6, sequence (P20813 whole entry): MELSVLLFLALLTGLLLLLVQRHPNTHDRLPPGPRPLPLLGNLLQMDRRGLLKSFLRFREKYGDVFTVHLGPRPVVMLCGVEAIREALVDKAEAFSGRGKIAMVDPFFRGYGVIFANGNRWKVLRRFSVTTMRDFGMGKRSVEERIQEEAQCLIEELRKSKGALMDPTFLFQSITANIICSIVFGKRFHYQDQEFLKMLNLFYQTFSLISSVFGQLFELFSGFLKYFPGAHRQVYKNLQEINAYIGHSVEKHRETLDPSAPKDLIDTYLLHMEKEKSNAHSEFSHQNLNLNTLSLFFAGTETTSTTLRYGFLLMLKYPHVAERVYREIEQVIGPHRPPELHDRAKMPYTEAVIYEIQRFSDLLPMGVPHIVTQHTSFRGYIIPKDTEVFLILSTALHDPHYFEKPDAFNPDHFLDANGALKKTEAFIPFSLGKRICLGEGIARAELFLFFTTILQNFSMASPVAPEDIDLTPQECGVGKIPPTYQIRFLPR
Procedure: as §1, §2

CYP-2C8 = CYP-2C8 (Homo sapiens (Human), UniProt P10632); assay: CYP panel profile: P450 inhibition, CYP-2C8; type: in vitro ADME; conditions: human liver microsomes
CYP-2C8, sequence (P10632 whole entry): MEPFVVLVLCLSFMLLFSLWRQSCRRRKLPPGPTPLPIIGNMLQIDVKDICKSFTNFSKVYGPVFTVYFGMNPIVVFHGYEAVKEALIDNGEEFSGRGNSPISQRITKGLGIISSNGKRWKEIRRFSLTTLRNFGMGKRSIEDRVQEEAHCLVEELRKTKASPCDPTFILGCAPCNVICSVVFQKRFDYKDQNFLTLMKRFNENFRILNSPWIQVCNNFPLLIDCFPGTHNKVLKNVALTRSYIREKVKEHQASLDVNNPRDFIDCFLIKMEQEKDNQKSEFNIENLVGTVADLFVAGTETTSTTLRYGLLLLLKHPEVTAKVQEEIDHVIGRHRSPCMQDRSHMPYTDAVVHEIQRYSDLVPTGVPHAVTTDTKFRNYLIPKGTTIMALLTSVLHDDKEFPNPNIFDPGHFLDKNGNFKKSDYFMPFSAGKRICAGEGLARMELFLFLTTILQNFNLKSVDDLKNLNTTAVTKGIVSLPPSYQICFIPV
Procedure: as §1, §2

CYP-2D6 = CYP-2D6 (Homo sapiens (Human), UniProt P10635); assay: CYP panel profile: P450 inhibition, CYP-2D6; type: in vitro ADME; conditions: human liver microsomes
CYP-2D6, sequence (P10635 whole entry): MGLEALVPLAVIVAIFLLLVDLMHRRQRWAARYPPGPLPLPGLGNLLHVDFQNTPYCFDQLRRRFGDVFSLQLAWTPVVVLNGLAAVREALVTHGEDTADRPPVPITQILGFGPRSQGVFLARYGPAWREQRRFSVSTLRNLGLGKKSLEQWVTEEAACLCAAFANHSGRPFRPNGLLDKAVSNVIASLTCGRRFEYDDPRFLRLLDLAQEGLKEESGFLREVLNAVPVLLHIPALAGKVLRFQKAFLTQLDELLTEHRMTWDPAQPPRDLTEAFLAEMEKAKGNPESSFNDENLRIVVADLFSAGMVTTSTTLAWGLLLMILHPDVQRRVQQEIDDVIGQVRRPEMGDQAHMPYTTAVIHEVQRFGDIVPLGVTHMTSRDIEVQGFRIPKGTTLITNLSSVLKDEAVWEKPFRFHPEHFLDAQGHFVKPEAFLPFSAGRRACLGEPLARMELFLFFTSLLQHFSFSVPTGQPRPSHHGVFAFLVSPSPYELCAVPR
Procedure: as §1, §2

CYP-1A2 = CYP-1A2 (Homo sapiens (Human), UniProt P05177); assay: CYP panel profile: P450 inhibition, CYP-1A2; type: in vitro ADME
CYP-1A2, sequence (P05177 whole entry): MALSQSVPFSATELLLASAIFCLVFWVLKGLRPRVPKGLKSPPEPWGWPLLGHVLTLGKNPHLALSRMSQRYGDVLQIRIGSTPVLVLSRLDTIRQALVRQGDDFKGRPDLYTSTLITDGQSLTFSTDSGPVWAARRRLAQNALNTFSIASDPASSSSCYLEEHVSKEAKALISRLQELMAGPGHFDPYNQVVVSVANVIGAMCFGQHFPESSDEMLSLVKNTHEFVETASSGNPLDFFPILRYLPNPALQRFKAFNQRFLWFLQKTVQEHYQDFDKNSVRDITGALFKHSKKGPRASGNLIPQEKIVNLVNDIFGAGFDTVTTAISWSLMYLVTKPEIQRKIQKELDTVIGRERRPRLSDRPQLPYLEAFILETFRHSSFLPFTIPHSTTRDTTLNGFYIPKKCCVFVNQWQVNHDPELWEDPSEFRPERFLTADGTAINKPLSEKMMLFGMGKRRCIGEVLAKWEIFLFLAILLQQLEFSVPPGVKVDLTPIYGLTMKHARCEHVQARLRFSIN
Procedure: as §1, §2

[3] = target: aryl hydrocarbon receptor (AhR) (Mus musculus (Mouse), UniProt P30561); assay: AhR ligand screening: AhRE-luciferase reporter in transfected Hepa1 cells; type: cell-based; conditions: for Fold @ 1 nM: fold change of luciferase expression at 1 nM test compound relative to vehicle (0.1% DMSO); for Fold @ 100 nM: fold change of luciferase expression at 100 nM test compound relative to vehicle (0.1% DMSO); for Fold @ 10 uM: fold change of luciferase expression at 10 uM test compound relative to vehicle (0.1% DMSO); for Fold relative to benchmark @ 100 nM: luciferase expression at 100 nM test compound relative to 100 nM benchmark compound 11-cl-BBQ
Procedure, shortened: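 Values are fold luciferase induction relative to vehicle (0.1% DMSO), read by luminometry of lysates from Hepa1 cells carrying an AhRE-driven luciferase reporter. Cells were seeded at 1×10^4 per well, grown overnight and treated with compound before lysis.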

[4] = Liver microsomal stability, rat; conditions: for Rem @ RLM × 30 min: rat liver microsomes, 1 μM compound, 0.5 mg/ml protein; for half-life at 1 μM / microsomal CLint at 1 μM: rat, liver microsomes, pH 7.4
[5] = In vivo PK study, intravenous and oral administration in male mice; parameters: species or system mouse; conditions: plasma; for C0: read-out: C0_Cmax
Procedure: In Vivo PK Study Pharmacokinetics of Exemplary Compounds 362 and 893 Following an Intravenous and Oral Administration in Male C57BL/6J Mice.
Male C57BL/6J mice, approximately 8-10 weeks old, were obtained from the vivarium of Fundación Ciencia & Vida Chile (Santiago, Chile). Dosing solution of Compound 362 for PO administration was formulated in a vehicle containing 40% DMSO, 20% Kolliphor EL, 40% Propylene Glycol at 0.8 mg/mL. Dosing solution of Compound 362 for IV administration was formulated in a vehicle containing 30% DMSO, 20% Kolliphor EL, 50% PBS at […].
Male […] mice, approximately 8-11 weeks old, 22-27 grams were obtained from the vivarium Fundación Ciencia & Vida Chile (Santiago, Chile). Animals were acclimated for a minimum period of 4 days upon arrival at the testing facility. Animals were weighed, identified by marking the tail with numbers using a non-toxic permanent marker and designated into the following treatment groups on the day of dosing:
Group 1 animals received an IV administration via caudal vein of 2 mg/kg PRXS0362 dosing solution.
Group 2 animals received a PO administration via feeding tubes (20 gauge) of 8 mg/kg PRXS0362 dosing solution.
Terminal whole blood was collected via cardiac puncture for group 1 at the following time points: 5, 10, 15, 30, 60, 120, 240, 360, and 480 minutes. Non-dosed mice were used to collect samples of zero time points. For the group 2 at the following time point: 15, 30, 60, 120, 240, 360, and 480 minutes.
Whole blood, approximately 300 μL per time point, was collected into microtainer tubes with EDTA (K2). Blood samples were centrifuged immediately at approximately 9,000 G at 4° C. for 5 minutes and plasma separated. Plasma samples were placed into individually labeled tubes and stored in a −80° C. freezer prior to LC/MS/MS analysis.
The whole brain was collected at each point only for both groups, for this the animals were euthanized with CO2, decapitated, the brain was extracted weighed, frozen in liquid nitrogen and stored at −80° C. prior to LC/MS/MS analysis.
Compound 893 was tested by the same protocol as above.

[6] = human liver microsomes, read-out: CYP-1A2 IC50

CYP-2C19, sequence (P33261 whole entry): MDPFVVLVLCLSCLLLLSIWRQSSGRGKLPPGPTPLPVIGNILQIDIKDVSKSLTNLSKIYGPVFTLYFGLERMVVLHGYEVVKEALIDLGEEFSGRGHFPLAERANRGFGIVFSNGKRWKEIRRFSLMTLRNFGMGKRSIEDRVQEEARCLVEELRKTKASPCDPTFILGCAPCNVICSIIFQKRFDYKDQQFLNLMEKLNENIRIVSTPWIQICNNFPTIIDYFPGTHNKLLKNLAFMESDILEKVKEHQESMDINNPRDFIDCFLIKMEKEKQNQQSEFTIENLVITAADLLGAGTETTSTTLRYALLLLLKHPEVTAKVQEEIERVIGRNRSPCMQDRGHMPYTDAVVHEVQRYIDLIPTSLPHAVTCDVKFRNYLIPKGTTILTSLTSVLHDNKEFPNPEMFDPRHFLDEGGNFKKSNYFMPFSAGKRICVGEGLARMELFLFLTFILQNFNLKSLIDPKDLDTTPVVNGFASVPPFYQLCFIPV

Row | SMILES | IC50 (CYP-2C19) | Rem @ HLM × 30 min [1] | half-life at 1 μM [1] | microsomal CLint at 1 μM [1] | IC50 (CYP-3A4) | Rem @ MLM × 30 min [2] | half-life at 1 μM [2] | microsomal CLint at 1 μM [2] | IC50 (CYP-2C9) | IC50 (CYP-2B6) | IC50 (CYP-2C8) | IC50 (CYP-2D6) | IC50 (CYP-1A2; [6]) | Fold @ 1 nM [3] | Fold @ 100 nM [3] | Fold @ 10 uM [3] | Fold relative to benchmark @ 100 nM [3] | Rem @ RLM × 30 min [4] | half-life at 1 μM [4] | microsomal CLint at 1 μM [4] | other results
1 | O=C(C1CC1)n1c(-c2cccc3ccccc23)cc2cc(Cl)ccc21 [Compound 972] | 0.2 µM | 73.0% | 74.9 min | 18.5 µL/min/mg | > 50 µM | 26.7% | 15.9 min | 87.1 µL/min/mg | 7 µM | 4.3 µM | > 48.8 µM | > 50 µM | 7 µM | 1 fold | 2 fold | 45 fold | 0.04 fold | 20.7% | 13.3 min | 105 µL/min/mg | –
2 | O=C(c1ccc(F)c(F)c1)n1c(-c2cccc3ccccc23)cc2cc(Cl)ccc21 [Compound 973] | 23.1 µM | 34.2% | 16.7 min | 83.1 µL/min/mg | > 50 µM | 58.7% | 39.9 min | 34.8 µL/min/mg | > 50 µM | > 50 µM | > 50 µM | > 50 µM | – | 1 fold | 1 fold | 1 fold | 0.02 fold | 46.3% | 26.5 min | 52.3 µL/min/mg | IC50 (CYP-1A2): > 50 µM
3 | O=C(c1ccc(F)c(F)c1)n1c(-c2ccc(-c3ccccc3)cc2)nc2ccc(Cl)cc21 [Compound 644] | > 50 µM | 69.8% | 77.9 min | 18 µL/min/mg | > 50 µM | 71.7% | 70.5 min | 20 µL/min/mg | 2.7 µM | > 50 µM | 1.7 µM | 8.2 µM | 4.7 µM | 1 fold | 1 fold | 2 fold | 0.11 fold | 36.8% | 28.7 min | 48 µL/min/mg | –
4 | O=S(=O)(c1ccc(C(F)(F)F)cc1)n1c(-c2cccc3ccccc23)nc2ccc(Cl)cc21 [Compound 782] | 6 µM | 66.4% | 50.5 min | 27.4 µL/min/mg | 0.4 µM | 14.9% | 10.9 min | 127 µL/min/mg | > 50 µM | > 50 µM | > 50 µM | > 50 µM | 47.9 µM | 1 fold | 23 fold | 19 fold | 0.92 fold | 31.8% | 17.8 min | 78 µL/min/mg | –
5 | Clc1ccc2[nH]c(-c3cccc4ccccc34)cc2c1 [Compound 893, 5-chloro-2-(naphthalen-1-yl)-1H-indole] | 2.9 µM | 19.6% | 14.1 min | 98.5 µL/min/mg | 23.3 µM | 16.7% | 12.2 min | 114 µL/min/mg | 7.2 µM | 8 µM | 7.7 µM | 31.7 µM | 0.5 µM | 1 fold | 49 fold | 49 fold | 0.91 fold | 51.7% | 35.8 min | 38.8 µL/min/mg | CL_CL/F ([5]; IV 2 mg/Kg): 4.218 L/[Kg*h]; Vd_Vd/F ([5]; IV 2 mg/Kg): 8.777 L/kg; thalf ([5]; IV 2 mg/Kg): 1.442 h; CL_CL/F ([5]; PO 8 mg/Kg): 5.739 L/[Kg*h]; Vd_Vd/F ([5]; PO 8 mg/Kg): 12.846 L/kg; thalf ([5]; PO 8 mg/Kg): 1.551 h; AUC(0-inf) ([5]; mouse, IV 2 mg/Kg): 474 ng·h/mL; AUC(0-t) ([5]; mouse, IV 2 mg/Kg): 451 ng·h/mL; MRT ([5]; mouse, IV 2 mg/Kg): 120 min; C0 ([5]; mouse, IV 2 mg/Kg): 174 ng/mL; bioavailability ([5]; mouse, PO 8 mg/Kg vs IV 2 mg/Kg): 73.5%; AUC(0-inf) ([5]; mouse, PO 8 mg/Kg): 1390 ng·h/mL; AUC(0-t) ([5]; mouse, PO 8 mg/Kg): 1330 ng·h/mL; MRT ([5]; mouse, PO 8 mg/Kg): 160 min; Tmax ([5]; mouse, PO 8 mg/Kg): 60 min; C0 ([5]; mouse, PO 8 mg/Kg): 398 ng/mL
6 | O=C(c1ccc(F)cc1)n1c(-c2cccc3ccccc23)nc2ccc(Cl)cc21 [Compound 587] | 6.7 µM | – | – | – | 6.3 µM | – | – | – | 5.3 µM | 11.6 µM | 3.2 µM | 26 µM | 0.4 µM | 2 fold | 16 fold | 19 fold | 1.07 fold | – | – | – | –

From US12473262B2, “Aryl hydrocarbon receptor activators” (Oregon State University, priority 2019, dated 2025)
